These compounds were tested against T1, SIRT1 (Homo sapiens, UniProt Q96EB6) (assay: Fluorescence polarization or mass spectrometry based assay to identify modulators of SIRT1 activity). Settings: activation of SIRT1 (Table 3); read-out: ED50 (the source's name).
T1 sequence (Q96EB6 1-747): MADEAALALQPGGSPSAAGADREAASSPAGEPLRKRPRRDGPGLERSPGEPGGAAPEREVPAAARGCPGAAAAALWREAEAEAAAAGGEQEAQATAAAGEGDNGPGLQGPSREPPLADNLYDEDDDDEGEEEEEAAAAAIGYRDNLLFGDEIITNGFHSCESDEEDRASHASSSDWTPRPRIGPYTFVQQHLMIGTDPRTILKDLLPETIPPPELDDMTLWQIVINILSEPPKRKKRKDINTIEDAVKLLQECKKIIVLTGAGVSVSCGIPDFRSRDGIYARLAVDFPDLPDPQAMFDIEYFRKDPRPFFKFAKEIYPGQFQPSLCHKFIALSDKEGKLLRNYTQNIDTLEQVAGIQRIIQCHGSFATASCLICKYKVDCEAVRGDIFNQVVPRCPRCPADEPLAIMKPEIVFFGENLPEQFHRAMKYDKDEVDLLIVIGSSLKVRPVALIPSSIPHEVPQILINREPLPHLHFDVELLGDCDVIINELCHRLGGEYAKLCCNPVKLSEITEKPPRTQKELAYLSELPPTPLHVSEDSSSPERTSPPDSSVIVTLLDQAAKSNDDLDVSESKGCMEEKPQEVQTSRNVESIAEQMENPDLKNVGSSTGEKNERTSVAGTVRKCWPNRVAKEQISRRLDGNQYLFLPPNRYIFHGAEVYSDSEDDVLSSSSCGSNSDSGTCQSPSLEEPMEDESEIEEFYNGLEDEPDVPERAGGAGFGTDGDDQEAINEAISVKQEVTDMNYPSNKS
Format: biochemical
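Note: deacetylation of a fluorophore-tagged p53-derived acetyl peptide by SIRT1, detected as fluorescence polarization after trypsin cleavage and streptavidin binding, compounds tested at 11 doses from 0.7 to 100 µM.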

Nc1ccc2[nH]c(/C=C/c3nc4cc(N)ccc4[nH]3)nc2c1 [Compound 18] and Nc1ccc2[nH]c(-c3cccc(-c4nc5cc(N)ccc5[nH]4)c3)nc2c1 [Compound 16] fall in the same range of EC50: 51 to 100 µM for the first, 51 to 100 µM for the second.

First: CC(=O)Nc1ccc(-c2nc3c(C(=O)NCc4cccc(CN)c4)cccn3c2NCc2ccccc2)cc1 [Compound 35]
Second: COCCNC(=O)c1cccn2c(NCc3ccccc3)c(-c3ccc(NC(=O)c4ccco4)cc3)nc12 [Compound 50]
The EC50 of the first is lower: 51 to 100 µM for the first, greater than 150 µM for the second. The first is the more potent here.

First: Nc1ccc(C(=O)Nc2ccc3[nH]c(-c4ccccc4)nc3c2)cc1 [Compound 4]
Second: O=C(Nc1cccc(-c2nc3ccccc3[nH]2)c1)c1cccnc1 [Compound 3]
The EC50 of the first is lower: 51 to 100 µM for the first, greater than 150 µM for the second. The first is the more potent here.

Compared with CC(=O)Nc1ccc(-c2nc3c(C(=O)NC(C)C(=O)NCCCN4CCCC4=O)cccn3c2NCc2ccccc2)cc1 (stereo not drawn) [Compound 41], CC(=O)Nc1ccc(-c2nc3c(C(=O)NCC(=O)NCCC#N)cccn3c2NCc2ccccc2)cc1 [Compound 47] is lower in EC50: 101 to 150 µM for the first, 51 to 100 µM for the second. The second is the more potent here.

First: COc1ccc(-c2nc3c(C(=O)NC(C)C(=O)NCCC#N)cccn3c2NCC2CCCO2)cc1 (stereo not drawn) [Compound 44]
Second: N#CCCNC(=O)CNC(=O)c1cccn2c(NCC3CCCO3)c(-c3ccc(Cl)cc3)nc12 (stereo not drawn) [Compound 42]
The EC50 of the first is higher: 101 to 150 µM for the first, 51 to 100 µM for the second.

COCCNC(=O)c1cccn2c(NCc3ccccc3)c(-c3ccc(NC(=O)C4CC4)cc3)nc12 [Compound 51] and COCCNC(=O)c1cccn2c(NCc3ccccc3)c(-c3ccc(NC(=O)N4CCOCC4)cc3)nc12 [Compound 49] fall in the same range of EC50: 51 to 100 µM for the first, 51 to 100 µM for the second.

First: COc1ccc(-c2nc3c(C(=O)NC(CC(=O)O)C4CCCCC4)cccn3c2NCc2ccccc2)cc1[N+](=O)[O-] (stereo not drawn) [Compound 31]
Second: CCCCNc1c(-c2ccc(OC)c([N+](=O)[O-])c2)nc2c(C(=O)NC(CC(=O)O)C3CCCCC3)cccn12 (stereo not drawn) [Compound 28]
The EC50 of the first is higher: greater than 150 µM for the first, 101 to 150 µM for the second. The second is the more potent here.

Compared with Cc1nc2cc3nc4c5cccc6cccc(c(=O)n4c3cc2[nH]1)c65 [Compound 66], Cc1[nH]c2ccccc2c1/C=C/c1nc2ccccc2c(=O)[nH]1 [Compound 17] is higher in EC50: 101 to 150 µM for the first, greater than 150 µM for the second. The first is the more potent here.

Compared with N#Cc1cc(Oc2nc3ccccc3s2)c(N2CCOCC2)cc1C#N [Compound 13], N#CC(C(=O)c1cc2ccccc2o1)c1nc2ccccc2s1 (stereo not drawn) [Compound 12] is lower in EC50: 101 to 150 µM for the first, 51 to 100 µM for the second. The second is the more potent here.

Compared with CCCCNc1c(-c2ccc(NC(=O)c3ccc(Cl)nc3)cc2)nc2c(C(=O)NCCCN3CCCC3=O)cccn12 [Compound 61], O=C(Nc1ccc(-c2nc3c(C(=O)NCCCN4CCCC4=O)cccn3c2NC2CCCCC2)cc1)c1ccco1 [Compound 59] is lower in EC50: greater than 150 µM for the first, 101 to 150 µM for the second.

COc1cccc(-c2nc3c(C(=O)NC(C)C(=O)NCCC#N)cccn3c2NC2CCCCC2)c1 (stereo not drawn) [Compound 46] and CC(=O)Nc1ccc(-c2nc3c(C(=O)NC4CCC(N)CC4)cccn3c2NC2CCCCC2)cc1 (stereo not drawn) [Compound 27] fall in the same range of EC50: 51 to 100 µM for the first, 51 to 100 µM for the second.

First: O=C(NCCCN1CCCC1=O)c1cccn2c(NC3CCCCC3)c(-c3ccc(NC(=O)N4CCOCC4)cc3)nc12 [Compound 58]
Second: O=C(NCCCN1CCCC1=O)c1cccn2c(NC3CCCCC3)c(-c3ccc(NC(=O)C4CC4)cc3)nc12 [Compound 60]
The EC50 of the first is lower: less than 50 µM for the first, 51 to 100 µM for the second. The first is the more potent here.

Compared with COc1ccccc1NC(=O)Nc1nn(C)c2cccc(OC)c12 [Compound 7], COc1cccc2c1c(NC(=O)c1cc3ccccc3s1)nn2C [Compound 8] is higher in EC50: 101 to 150 µM for the first, greater than 150 µM for the second. The first is the more potent here.

CC(C)CC(=O)Nc1ccc(-c2nc3c(C(=O)NCCN4CCNC4=O)cccn3c2NC(C)(C)C)cc1 [Compound 57] and CCCCNc1c(-c2ccc(NC(=O)CC(C)C)cc2)nc2c(C(=O)NCCN3CCNC3=O)cccn12 [Compound 56] cannot be ordered by EC50: greater than 150 µM for the first, greater than 150 µM for the second.

First: CN(C)/C=C(\C#N)c1nc2ccccc2[nH]1 [Compound 64]
Second: Cc1ccsc1/C=C(\C#N)c1nc2ccccc2[nH]1 [Compound 19]
The EC50 of the first is lower: 51 to 100 µM for the first, 101 to 150 µM for the second.

Compared with Cc1cccc(-c2nc3c(C(=O)NC4CCC(N)CC4)cccn3c2NCc2ccccc2)c1 (stereo not drawn) [Compound 26], O=C(O)CC(NC(=O)c1cccn2c(NCc3ccccc3)c(-c3ccc4ccccc4c3)nc12)C1CCCCC1 (stereo not drawn) [Compound 38] is higher in EC50: 101 to 150 µM for the first, greater than 150 µM for the second.

First: O=C(O)CCC(=O)Nc1cccc(-c2nc3cc4ccccc4cc3[nH]2)c1 [Compound 65]
Second: O=C(Nc1cccc(-c2nc3ccccc3[nH]2)c1)c1ccco1 [Compound 25]
The EC50 of the first is higher: greater than 150 µM for the first, 51 to 100 µM for the second.

First: N#C/C(=C\c1ccc(-c2ccc(C(=O)O)cc2)o1)c1nc2ccccc2[nH]1 [Compound 9]
Second: Cc1[nH]c2ccccc2c1/C=C(\C#N)c1nc2ccccc2[nH]1 [Compound 1]
The EC50 of the first is lower: less than 50 µM for the first, 101 to 150 µM for the second.

COc1ccc(-c2nc3c(C(=O)NCCCN)cccn3c2NCc2ccccc2)cc1[N+](=O)[O-] [Compound 34] and CCCCNc1c(-c2ccc(OC)c([N+](=O)[O-])c2)nc2c(C(=O)NCCCN)cccn12 [Compound 33] fall in the same range of EC50: 101 to 150 µM for the first, 101 to 150 µM for the second.

Cc1csc(NC(=O)c2ccccc2C(=O)O)c1-c1nc2ccccc2s1 [Compound 6] and COc1ccc2c(c1)C(=O)C(c1nc3ccccc3s1)C2=O (stereo not drawn) [Compound 62] cannot be ordered by EC50: less than 50 µM for the first, less than 50 µM for the second.

COc1ccc(-c2nc3cc(C(=O)NC(CC(=O)O)c4ccc(C)cc4)ccn3c2NC2CCCCC2)cc1OC (stereo not drawn) [Compound 39] and COc1ccc(-c2nc3cc(C(=O)NCc4cccc(CN)c4)ccn3c2NC2CCCCC2)cc1[N+](=O)[O-] [Compound 40] fall in the same range of EC50: 101 to 150 µM for the first, 101 to 150 µM for the second.

Compared with COC(=O)c1[nH]c2cc(OC)c(OC)cc2c1NC(=O)c1cccs1 [Compound 20], COC(=O)c1[nH]c2cc(OC)c(OC)cc2c1NC(=O)c1cccc(OC)c1 [Compound 22] is higher in EC50: 101 to 150 µM for the first, greater than 150 µM for the second.

Nc1ccc2nc(-c3ccc(-c4nc5ccc(N)cc5[nH]4)cc3)[nH]c2c1 [Compound 15] and COc1cc(C(=O)Nc2cccc(-c3nc4ccccc4[nH]3)c2)cc(OC)c1OC [Compound 11] fall in the same range of EC50: 51 to 100 µM for the first, 51 to 100 µM for the second.

Compared with O=C(Nc1c(C(=O)O)[nH]c2ccc(Br)cc12)c1ccc(F)cc1 [Compound 21], COc1ccc2nc3s/c(=C\c4ccc(-c5ccc(Cl)c(C(=O)O)c5)o4)c(=O)n3c2c1 [Compound 10] is lower in EC50: 51 to 100 µM for the first, less than 50 µM for the second. The second is the more potent here.

CC(=O)Nc1ccc(-c2nc3c(C(=O)NC(CC(=O)O)C4CCCCC4)cccn3c2NC(C)(C)C)cc1 (stereo not drawn) [Compound 36] and CC(=O)NCCNC(=O)c1cccn2c(NCc3ccccc3)c(-c3ccc(NC(=O)c4ccco4)cc3)nc12 [Compound 52] fall in the same range of EC50: 101 to 150 µM for the first, 101 to 150 µM for the second.

Compared with Cc1nn(C)c(Cl)c1-c1nc2c(C(=O)NC(C)C(=O)NCCC#N)cccn2c1NCc1ccccc1 (stereo not drawn) [Compound 48], Cc1cc(C(=O)Nc2ccc(-c3nc4c(C(=O)NCCN5CCNC5=O)cccn4c3NCc3ccccc3)cc2)no1 [Compound 55] is higher in EC50: 101 to 150 µM for the first, greater than 150 µM for the second.

COc1cccc(C(=O)Nc2cccc(-c3cn4ccccc4n3)c2)c1 [Compound 23] and O=C(Nc1ccc(-c2nc3c(C(=O)NCCN4CCNC4=O)cccn3c2NCc2ccccc2)cc1)c1ccco1 [Compound 54] cannot be ordered by EC50: greater than 150 µM for the first, greater than 150 µM for the second.

COc1cc(/C=C(\C#N)c2nc3ccccc3[nH]2)cc(OC)c1OC [Compound 24] and O=C(NCCN1CCNC1=O)c1cccn2c(NCc3ccccc3)c(-c3ccc(NC(=O)N4CCOCC4)cc3)nc12 [Compound 53] fall in the same range of EC50: 101 to 150 µM for the first, 101 to 150 µM for the second.

Same assay, conditions: inhibition of SIRT1 (Table 4)

COC(=O)CC(=O)Nc1ccccc1-c1nc2ccc(C(=O)NCc3ccc4c(c3)OCO4)cn2c1NC1CCCCC1 [Compound 84] gave an IC50 of less than 50 µM.

From US7998974B2, “Fused heterocyclic compounds and their use as sirtuin modulators” (Sirtris Pharmaceuticals, Inc., priority 2005, dated 2011)
